# Assay: Biodistribution of the nano-emulsion of Example 1.1 in male mice (Tables 15 to 21)
# Type: in vivo
# Settings: FVB male mouse
# Protocol: In the following examples, the radioactivity was counted with the TRiCarb Counter (Ref: Packard, Liquid Scintillation Analyzers; Models 2200CA).
# Fluobeam 700 (Fluoptics) is the apparatus with which the whole of the organs from the biodistribution were analyzed in fluorescence as well as the one with which the biodistribution kinetics of the nano-emulsions were established in vivo. This imaging system allows viewing of the fluorescence in spectral bands from 700 to 850 nm for a 650 nm excitation. The apparatus consists of an electric case containing the laser of class 3B, its power supply and an optical head containing the CCD camera. […]
compound,measurement,setting,value
"CCCCCCCCCCCCCCCCO[C@H]1CC[C@@]2(C)C(=CC[C@H]3[C@@H]4CC[C@H]([C@H](C)CCCC(C)C)[C@@]4(C)CC[C@@H]32)C1 [[3H]CHE, cholesteryl hexadecylether]",tracer in Adrenal gland,2 h,10.16 percentage of the dose injected per gram of tissue
same,tracer in Adrenal gland,4 h,16.96 percentage of the dose injected per gram of tissue
same,tracer in Adrenal gland,6 h,13.399 percentage of the dose injected per gram of tissue
same,tracer in Adrenal gland,16 h,32.89 percentage of the dose injected per gram of tissue
same,tracer in Adrenal gland,24 h,17.41 percentage of the dose injected per gram of tissue
same,tracer in Adrenal gland,48 h,25.12 percentage of the dose injected per gram of tissue
same,tracer in Adrenal gland,72 h,46.41 percentage of the dose injected per gram of tissue
same,tracer in Brain,2 h,0.35 percentage of the dose injected per gram of tissue
same,tracer in Brain,4 h,0.23 percentage of the dose injected per gram of tissue
same,tracer in Brain,6 h,0.24 percentage of the dose injected per gram of tissue
same,tracer in Brain,16 h,0.18 percentage of the dose injected per gram of tissue
same,tracer in Brain,24 h,0.11 percentage of the dose injected per gram of tissue
same,tracer in Brain,48 h,0.10 percentage of the dose injected per gram of tissue
same,tracer in Brain,72 h,0.11 percentage of the dose injected per gram of tissue
same,tracer in Fat,2 h,1.14 percentage of the dose injected per gram of tissue
same,tracer in Fat,4 h,0.74 percentage of the dose injected per gram of tissue
same,tracer in Fat,6 h,1.234 percentage of the dose injected per gram of tissue
same,tracer in Fat,16 h,1.70 percentage of the dose injected per gram of tissue
same,tracer in Fat,24 h,0.83 percentage of the dose injected per gram of tissue
same,tracer in Fat,48 h,0.94 percentage of the dose injected per gram of tissue
same,tracer in Fat,72 h,0.70 percentage of the dose injected per gram of tissue
same,tracer in Heart,2 h,9.84 percentage of the dose injected per gram of tissue
same,tracer in Heart,4 h,7.57 percentage of the dose injected per gram of tissue
same,tracer in Heart,6 h,8.52 percentage of the dose injected per gram of tissue
same,tracer in Heart,16 h,8.50 percentage of the dose injected per gram of tissue
same,tracer in Heart,24 h,5.76 percentage of the dose injected per gram of tissue
same,tracer in Heart,48 h,6.05 percentage of the dose injected per gram of tissue
same,tracer in Heart,72 h,7.83 percentage of the dose injected per gram of tissue
same,tracer in Intestine,2 h,2.44 percentage of the dose injected per gram of tissue
same,tracer in Intestine,4 h,1.98 percentage of the dose injected per gram of tissue
same,tracer in Intestine,6 h,2.549 percentage of the dose injected per gram of tissue
same,tracer in Intestine,16 h,5.19 percentage of the dose injected per gram of tissue
same,tracer in Intestine,24 h,3.41 percentage of the dose injected per gram of tissue
same,tracer in Intestine,48 h,3.50 percentage of the dose injected per gram of tissue
same,tracer in Intestine,72 h,3.47 percentage of the dose injected per gram of tissue
same,tracer in Kidney,2 h,5.29 percentage of the dose injected per gram of tissue
same,tracer in Kidney,4 h,3.14 percentage of the dose injected per gram of tissue
same,tracer in Kidney,6 h,3.336 percentage of the dose injected per gram of tissue
same,tracer in Kidney,16 h,2.40 percentage of the dose injected per gram of tissue
same,tracer in Kidney,24 h,1.80 percentage of the dose injected per gram of tissue
same,tracer in Kidney,48 h,1.77 percentage of the dose injected per gram of tissue
same,tracer in Kidney,72 h,1.82 percentage of the dose injected per gram of tissue
same,tracer in Liver,2 h,22.67 percentage of the dose injected per gram of tissue
same,tracer in Liver,4 h,17.25 percentage of the dose injected per gram of tissue
same,tracer in Liver,6 h,22.609 percentage of the dose injected per gram of tissue
same,tracer in Liver,16 h,40.91 percentage of the dose injected per gram of tissue
same,tracer in Liver,24 h,30.93 percentage of the dose injected per gram of tissue
same,tracer in Liver,48 h,24.53 percentage of the dose injected per gram of tissue
same,tracer in Liver,72 h,24.97 percentage of the dose injected per gram of tissue
same,tracer in Lung,2 h,5.08 percentage of the dose injected per gram of tissue
same,tracer in Lung,4 h,2.98 percentage of the dose injected per gram of tissue
same,tracer in Lung,6 h,3.771 percentage of the dose injected per gram of tissue
same,tracer in Lung,16 h,5.31 percentage of the dose injected per gram of tissue
same,tracer in Lung,24 h,2.88 percentage of the dose injected per gram of tissue
same,tracer in Lung,48 h,3.02 percentage of the dose injected per gram of tissue
same,tracer in Lung,72 h,3.04 percentage of the dose injected per gram of tissue
same,tracer in Muscle,2 h,0.99 percentage of the dose injected per gram of tissue
same,tracer in Muscle,4 h,0.56 percentage of the dose injected per gram of tissue
same,tracer in Muscle,6 h,0.77 percentage of the dose injected per gram of tissue
same,tracer in Muscle,16 h,0.97 percentage of the dose injected per gram of tissue
same,tracer in Muscle,24 h,0.38 percentage of the dose injected per gram of tissue
same,tracer in Muscle,48 h,0.63 percentage of the dose injected per gram of tissue
same,tracer in Muscle,72 h,0.49 percentage of the dose injected per gram of tissue
same,tracer in Ovary,"Ovary, 24 h",1.71 percentage of the dose injected per gram of tissue
same,tracer in Pancreas,2 h,1.64 percentage of the dose injected per gram of tissue
same,tracer in Pancreas,4 h,1.50 percentage of the dose injected per gram of tissue
same,tracer in Pancreas,6 h,1.67 percentage of the dose injected per gram of tissue
same,tracer in Pancreas,16 h,1.92 percentage of the dose injected per gram of tissue
same,tracer in Pancreas,24 h,1.31 percentage of the dose injected per gram of tissue
same,tracer in Pancreas,48 h,0.99 percentage of the dose injected per gram of tissue
same,tracer in Pancreas,72 h,1.12 percentage of the dose injected per gram of tissue
same,tracer in Salivary gland,2 h,1.53 percentage of the dose injected per gram of tissue
same,tracer in Salivary gland,4 h,1.26 percentage of the dose injected per gram of tissue
same,tracer in Salivary gland,6 h,2.10 percentage of the dose injected per gram of tissue
same,tracer in Salivary gland,16 h,2.68 percentage of the dose injected per gram of tissue
same,tracer in Salivary gland,24 h,1.57 percentage of the dose injected per gram of tissue
same,tracer in Salivary gland,48 h,2.07 percentage of the dose injected per gram of tissue

# From US9707305B2, “Formulas for diagnosing and treating hormone-dependent cancers and cancers of the organs responsible for steroid hormone synthesis” (Commissariat à l'énergie atomique et aux énergies …, priority 2011, dated 2017)
